Drawing on patent publication US9193722B2, “Tri-cyclic pyrazolopyridine kinase inhibitors” (Vertex Pharmaceuticals Incorporated, priority 2008, dated 2015), this text covers Ki for 43 compounds.

Some results are limits rather than exact numbers.

What all share (assay type): biochemical
One assay has as its target PKC theta kinase (Homo sapiens, UniProt Q04759). The experiment in a line: PKC theta kinase inhibition, coupled-enzyme (NADH absorbance) assay, Ki. Particulars: 240 μM ATP, 18 nM PKC theta kinase, 30° C. The gist of the method:
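Coupled-enzyme kinase assay following NADH absorbance at 340 nm, in 100 mM HEPES pH 7.5, 10 mM MgCl2, 25 mM NaCl, 0.1 mM EDTA, 0.01% Brij. Compound in DMSO preincubated with enzyme 10 min at 30 °C. Ki from initial rates by non-linear regression.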

The next assay deals with PKC delta kinase (Homo sapiens, UniProt Q05655). Briefly: PKC delta kinase inhibition, coupled-enzyme (NADH absorbance) assay, Ki. To be noted: 150 μM ATP, 46 nM PKC delta kinase, 30° C.; read-out: Ki PKC delta. The procedure, abridged: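 PKC delta in 100 mM HEPES pH 7.5, 10 mM MgCl2, 25 mM NaCl, 0.1 mM EDTA, 0.01% Brij, equilibrated 10 min at 30° C with compound from DMSO stock. Started with ATP at 150 μM final; NADH-coupled absorbance at 340 nm followed 15 min at 30° C. Ki from initial rates by non-linear regression.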

Another assay concerns the target PKC alpha kinase (Homo sapiens, UniProt P17252). Briefly: PKC alpha kinase inhibition, coupled-enzyme (NADH absorbance) assay, Ki. Particulars: 130 μM ATP, 4.5 nM PKC alpha kinase, 30° C. The gist of the method: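 Enzyme in 100 mM HEPES pH 7.5, 10 mM MgCl2, 100 μM CaCl2, 0.01% Brij, preincubated with compound 10 min at 30 °C. Reaction started with 130 μM ATP (final); NADH consumption followed at 340 nm for 15 min at 30 °C. Ki fitted by non-linear regression of initial rates.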

Chain of PKC theta kinase (Q04759 whole entry): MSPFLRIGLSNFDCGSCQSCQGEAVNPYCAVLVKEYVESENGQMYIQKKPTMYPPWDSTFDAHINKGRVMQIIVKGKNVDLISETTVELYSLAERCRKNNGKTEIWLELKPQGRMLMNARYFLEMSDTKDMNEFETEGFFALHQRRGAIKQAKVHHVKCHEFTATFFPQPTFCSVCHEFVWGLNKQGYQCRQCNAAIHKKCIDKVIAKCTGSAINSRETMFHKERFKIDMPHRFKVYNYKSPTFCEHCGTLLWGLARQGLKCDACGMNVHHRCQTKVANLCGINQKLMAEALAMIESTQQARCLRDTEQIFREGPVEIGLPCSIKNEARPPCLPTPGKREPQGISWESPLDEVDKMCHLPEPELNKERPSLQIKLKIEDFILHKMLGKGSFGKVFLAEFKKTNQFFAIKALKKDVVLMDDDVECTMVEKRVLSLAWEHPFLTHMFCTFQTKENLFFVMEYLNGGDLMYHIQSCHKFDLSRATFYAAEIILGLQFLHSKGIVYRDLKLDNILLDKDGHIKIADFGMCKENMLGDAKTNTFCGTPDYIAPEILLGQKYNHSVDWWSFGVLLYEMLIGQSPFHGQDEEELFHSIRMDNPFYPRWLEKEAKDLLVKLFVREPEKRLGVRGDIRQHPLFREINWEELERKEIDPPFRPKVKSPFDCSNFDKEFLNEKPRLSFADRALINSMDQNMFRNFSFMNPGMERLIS
Chain of PKC delta kinase (Q05655 whole entry): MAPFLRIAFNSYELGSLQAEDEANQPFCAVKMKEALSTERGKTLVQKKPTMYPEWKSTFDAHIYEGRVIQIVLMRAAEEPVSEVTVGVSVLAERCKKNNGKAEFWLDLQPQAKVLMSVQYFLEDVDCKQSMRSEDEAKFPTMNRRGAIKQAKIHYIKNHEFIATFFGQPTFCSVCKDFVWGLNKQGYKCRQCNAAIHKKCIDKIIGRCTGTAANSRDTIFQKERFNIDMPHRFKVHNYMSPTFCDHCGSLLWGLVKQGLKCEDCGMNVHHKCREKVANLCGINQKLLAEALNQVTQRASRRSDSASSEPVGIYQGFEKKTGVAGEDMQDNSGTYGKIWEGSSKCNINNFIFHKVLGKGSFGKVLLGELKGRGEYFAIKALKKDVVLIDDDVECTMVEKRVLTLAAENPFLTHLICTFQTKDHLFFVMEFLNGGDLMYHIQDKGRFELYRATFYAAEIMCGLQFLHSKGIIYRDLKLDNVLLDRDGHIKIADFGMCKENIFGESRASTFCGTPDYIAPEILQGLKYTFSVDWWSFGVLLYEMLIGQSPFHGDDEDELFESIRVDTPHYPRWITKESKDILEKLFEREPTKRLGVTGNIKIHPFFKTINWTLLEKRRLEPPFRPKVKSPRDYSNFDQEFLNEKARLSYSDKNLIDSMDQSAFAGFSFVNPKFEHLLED

Take `CC(C)C(N)[C@H]1CCCN(c2ccc(C(F)(F)F)c(-c3n[nH]c4ncccc34)n2)C1` (stereo partly drawn) [Compound 265]: the Ki on PKC theta kinase is less than 500 nM; on PKC delta kinase, less than 500 nM; at PKC alpha kinase, greater than 1250 nM.

Regarding `CC(C)C(C)(O)C1CN(c2nc(-c3n[nH]c4ncccc34)c(F)cc2F)CCN1` (stereo not drawn) [Compound 444], the results for the Ki at PKC theta kinase, at PKC delta kinase and at PKC alpha kinase were less than 500 nM, greater than 1250 nM and greater than 1250 nM, respectively.

Take `CC(C)CC1(C)CN(c2cccc(-c3n[nH]c4ncccc34)n2)CCN1` (stereo not drawn) [Compound 89]: the Ki on PKC theta kinase was less than 50 nM; on PKC delta kinase, less than 50 nM; on PKC alpha kinase, less than 500 nM.

Consider `NC1CCCN(c2ccc(F)c(-c3n[nH]c4ncccc34)n2)C1` (stereo not drawn) [Compound 294], for which the Ki is less than 500 nM at PKC theta kinase, greater than 1250 nM on PKC delta kinase and greater than 1250 nM on PKC alpha kinase.

`CN(C)CC1CCCN(c2ccc(F)c(-c3n[nH]c4ncccc34)n2)C1` (stereo not drawn) [Compound 305]: the Ki on PKC theta kinase was greater than 700 nM; on PKC delta kinase, greater than 1250 nM; at PKC alpha kinase, greater than 1250 nM.

For `CC(C)C(O)C1CN(c2ccc(F)c(-c3n[nH]c4ncccc34)n2)CCN1` (stereo not drawn) [Compound 252], the results for the Ki at PKC theta kinase, at PKC delta kinase and on PKC alpha kinase were less than 50 nM, less than 500 nM and less than 2800 nM, respectively.

For the compound `CC(C)CC1(C#N)CN(c2ccc(C(F)(F)F)c(-c3n[nH]c4ncccc34)n2)C1` [Compound 429], the Ki is greater than 700 nM at PKC theta kinase, greater than 1250 nM on PKC delta kinase and greater than 1250 nM at PKC alpha kinase.

Regarding `CC1(C)CC1(O)C1CN(c2ccc(F)c(-c3n[nH]c4ncccc34)n2)CCN1` (stereo not drawn) [Compound 288], the Ki is less than 1 nM at PKC theta kinase, less than 500 nM on PKC delta kinase and greater than 1250 nM at PKC alpha kinase.

`CC(O)(c1ccccc1)C1CN(c2ccc(F)c(-c3n[nH]c4ncccc34)n2)CCN1` (stereo not drawn) [Compound 322]: the Ki at PKC theta kinase was less than 500 nM; at PKC delta kinase it was greater than 1250 nM; at PKC alpha kinase it was greater than 1250 nM.

Regarding `CCC[C@H]1CN(c2cccc(-c3n[nH]c4ncccc34)n2)CC(F)(F)CN1` [Compound 227], the Ki at PKC theta kinase was less than 500 nM; at PKC delta kinase, greater than 1250 nM; at PKC alpha kinase it was greater than 1250 nM.

On to `c1cnc2[nH]nc(-c3nccc(N4CCNCC4)n3)c2c1` [Compound 81, 3-(4-(piperazin-1-yl)pyrimidin-2-yl)-1H-pyrazolo[3,4-b]pyridine], for which the Ki is greater than 700 nM on PKC theta kinase, greater than 2000 nM on PKC delta kinase and greater than 1250 nM on PKC alpha kinase.

As for `Fc1ccc(C2CCNCC2)nc1-c1n[nH]c2ncccc12` [Compound 440], the Ki on PKC theta kinase was less than 500 nM; on PKC delta kinase, greater than 1250 nM; on PKC alpha kinase, greater than 1250 nM.

For `CC(C)CC1CCCN(c2ccc(C(F)(F)F)c(-c3n[nH]c4ncccc34)n2)C1` (stereo not drawn) [Compound 333], the Ki on PKC theta kinase was greater than 700 nM; on PKC delta kinase, greater than 1250 nM; on PKC alpha kinase, greater than 1250 nM.

With `CCC(C)(C)C(N)C1CCCN(c2ccc(F)c(-c3n[nH]c4ncccc34)n2)C1` (stereo not drawn) [Compound 379], the values for the Ki on PKC theta kinase, on PKC delta kinase and at PKC alpha kinase were less than 500 nM, greater than 1250 nM and greater than 1250 nM, respectively.

In the case of `NC1CCN(c2ccc(C(F)(F)F)c(-c3n[nH]c4ncccc34)n2)CC12CCOCC2` (stereo not drawn) [Compound 462], the Ki at PKC theta kinase is less than 500 nM; on PKC delta kinase, less than 2800 nM; on PKC alpha kinase, greater than 1250 nM.

On to `CCC[C@H]1CN(c2cccc(-c3n[nH]c4ncccc34)n2)C[C@H](CC(C)C)N1` [Compound 14], for which the values for the Ki on PKC theta kinase, at PKC delta kinase and on PKC alpha kinase were less than 500 nM, less than 2800 nM and greater than 1250 nM, respectively.

Regarding `NCC1CCN(c2cc(C(F)(F)F)cc(-c3n[nH]c4ncccc34)n2)CC1` [Compound 412], the Ki is less than 500 nM at PKC theta kinase, greater than 1250 nM on PKC delta kinase and greater than 1250 nM on PKC alpha kinase.

`Cc1ccc(N2CCNCC2)nc1-c1n[nH]c2ncccc12` [Compound 3]: the values for the Ki on PKC theta kinase, at PKC delta kinase and at PKC alpha kinase were less than 500 nM, less than 2800 nM and greater than 2800 nM, respectively.

`Cc1ccc(C2CN(c3ccc(C(F)(F)F)c(-c4n[nH]c5ncccc45)n3)CCN2)cc1` (stereo not drawn) [Compound 133]: the Ki on PKC theta kinase is less than 500 nM; at PKC delta kinase, greater than 1250 nM; at PKC alpha kinase it was greater than 1250 nM.

For the compound `CC(C)(C)C[C@H]1CN(c2cccc(-c3n[nH]c4ncccc34)n2)CCN1` [Compound 139], the Ki is less than 50 nM at PKC theta kinase, less than 50 nM on PKC delta kinase and less than 2800 nM on PKC alpha kinase.

`CC(C)CC1(CN)CCCN(c2ccc(C(F)(F)F)c(-c3n[nH]c4ncccc34)n2)C1` (stereo not drawn) [Compound 352]: the results for the Ki on PKC theta kinase, at PKC delta kinase and on PKC alpha kinase were less than 500 nM, less than 2800 nM and greater than 1250 nM, respectively.

`OCC1CCN(c2ccc(C(F)(F)F)c(-c3n[nH]c4ncccc34)n2)CC1` [Compound 321]: the Ki on PKC theta kinase was greater than 700 nM; at PKC delta kinase, greater than 1250 nM; at PKC alpha kinase it was greater than 1250 nM.

Turning to `NCC1CCN(c2cccc(-c3n[nH]c4ncccc34)n2)CC1` [Compound 64], the results for the Ki on PKC theta kinase, at PKC delta kinase and at PKC alpha kinase were less than 500 nM, less than 2800 nM and greater than 1250 nM, respectively.

Regarding `CC(C)C(N)[C@@H]1CCCN(c2ccc(F)c(-c3n[nH]c4ncccc34)n2)C1` (stereo partly drawn) [Compound 281], the Ki at PKC theta kinase is less than 50 nM; on PKC delta kinase it was greater than 1250 nM; at PKC alpha kinase it was greater than 1250 nM.

`CC(C)CC1(N)CCCN(c2ccc(F)c(-c3n[nH]c4ncccc34)n2)C1` (stereo not drawn) [Compound 284]: the results for the Ki on PKC theta kinase, at PKC delta kinase and on PKC alpha kinase were less than 500 nM, greater than 1250 nM and greater than 1250 nM, respectively.

For `NC1CCN(c2ccc(Cl)c(-c3n[nH]c4ncccc34)n2)CC1` [Compound 110], the Ki on PKC theta kinase was less than 500 nM; on PKC delta kinase, less than 2800 nM; on PKC alpha kinase it was greater than 1250 nM.

Regarding `CCC(C)(O)C1CN(c2ccc(F)c(-c3n[nH]c4ncccc34)n2)CCN1` (stereo not drawn) [Compound 242], the Ki at PKC theta kinase is less than 50 nM; at PKC delta kinase it was less than 500 nM; on PKC alpha kinase, greater than 1250 nM.

As for `CCC1(CN)CN(c2ccc(C(F)(F)F)c(-c3n[nH]c4ncccc34)n2)CCO1` (stereo not drawn) [Compound 403], the Ki at PKC theta kinase is less than 50 nM; on PKC delta kinase, less than 500 nM; at PKC alpha kinase, greater than 1250 nM.

As for `CNC1CCN(c2ccc(C(F)(F)F)c(-c3n[nH]c4ncccc34)n2)CC1` [Compound 359], the figures for the Ki on PKC theta kinase, at PKC delta kinase and at PKC alpha kinase were greater than 700 nM, greater than 1250 nM and greater than 1250 nM, respectively.

On to `CC(C)(C)C(N)C1CCCN(c2ccc(F)c(-c3n[nH]c4ncccc34)n2)C1` (stereo not drawn) [Compound 330], for which the Ki is less than 1 nM on PKC theta kinase, less than 10 nM on PKC delta kinase and less than 500 nM at PKC alpha kinase.

For the compound `CC(C)C[C@@]1(O)CN(c2ccc(C(F)(F)F)c(-c3n[nH]c4ncccc34)n2)CC[C@H]1N` [Compound 195], the Ki at PKC theta kinase was less than 50 nM; on PKC delta kinase it was less than 500 nM; at PKC alpha kinase, less than 500 nM.

Consider `c1cc(-c2n[nH]c3ncccc23)nc(N2CCNC(C3CC3)C2)c1` (stereo not drawn) [Compound 41], for which the figures for the Ki at PKC theta kinase, at PKC delta kinase and at PKC alpha kinase were less than 50 nM, less than 500 nM and greater than 1250 nM, respectively.

Turning to `OCCC1CCCCN1c1ccc(C(F)(F)F)c(-c2n[nH]c3ncccc23)n1` (stereo not drawn) [Compound 257], the Ki was greater than 700 nM on PKC theta kinase, greater than 1250 nM at PKC delta kinase and greater than 1250 nM on PKC alpha kinase.

In the case of `CC[C@H]1CN(c2cccc(-c3n[nH]c4ncccc34)n2)C[C@H](CC(C)C)N1` [Compound 12], the Ki was less than 500 nM at PKC theta kinase, greater than 2000 nM on PKC delta kinase and greater than 1250 nM on PKC alpha kinase.

As for `FC(F)(F)c1ccc(N2CCNC(C(F)(F)F)C2)nc1-c1n[nH]c2ncccc12` (stereo not drawn) [Compound 65], the Ki was less than 500 nM at PKC theta kinase, greater than 2000 nM at PKC delta kinase and greater than 1250 nM at PKC alpha kinase.

With `CC(C)(C)[C@H]1CN(c2ccc(Cl)c(-c3n[nH]c4ncccc34)n2)CCN1` [Compound 78], the Ki on PKC theta kinase is less than 500 nM; at PKC delta kinase, less than 2800 nM; at PKC alpha kinase, greater than 1250 nM.

`CC(C)(O)[C@@H]1CN(c2cccc(-c3n[nH]c4ncccc34)n2)CCN1` [Compound 176]: the Ki was less than 50 nM on PKC theta kinase, less than 50 nM at PKC delta kinase and greater than 1250 nM at PKC alpha kinase.

Consider `CC(F)(F)C(C)(O)C1CN(c2ccc(F)c(-c3n[nH]c4ncccc34)n2)CCN1` (stereo not drawn) [Compound 287], for which the Ki was less than 1 nM at PKC theta kinase, less than 10 nM on PKC delta kinase and less than 2800 nM at PKC alpha kinase.

As to `NCC1CN(c2ccc(C(F)(F)F)c(-c3n[nH]c4ncccc34)n2)C1` [Compound 363], the Ki on PKC theta kinase was greater than 700 nM; at PKC delta kinase, greater than 1250 nM; at PKC alpha kinase, greater than 1250 nM.

As for `NC1CCN(c2ccc(C(F)(F)F)c(-c3n[nH]c4ncccc34)n2)C1` (stereo not drawn) [Compound 125], the Ki at PKC theta kinase is less than 2800 nM; on PKC delta kinase, greater than 1250 nM; at PKC alpha kinase it was greater than 1250 nM.

`FC(F)(F)c1ccc(N2CCC(N3CCCCC3)CC2)nc1-c1n[nH]c2ncccc12` [Compound 320]: the Ki is greater than 700 nM on PKC theta kinase, greater than 1250 nM on PKC delta kinase and greater than 1250 nM on PKC alpha kinase.

In the case of `CC(C)C[C@H]1CN(c2ccnc(-c3n[nH]c4ncccc34)n2)CCN1` [Compound 66], the Ki was less than 500 nM on PKC theta kinase, less than 2800 nM at PKC delta kinase and greater than 1250 nM on PKC alpha kinase.

Regarding `CC(C)CC1(C)CN(c2nc(-c3n[nH]c4ncccc34)ccc2F)CCN1` (stereo not drawn) [Compound 132], the Ki on PKC theta kinase was less than 50 nM; at PKC delta kinase, less than 500 nM; on PKC alpha kinase, less than 2800 nM.
